Publication PMC4072317 (Food chemistry, 2013)
Like-named read-outs stand apart in the source and are kept apart here.

Tests used:
[1] = system: human intestinal Caco-2 cell membranes; conditions: ref Yi et al., 2006; cited from earlier work
[2] = for ACNs in I.E. as % of input: fed state (high fat meal), ileal efflux over 4 h, mean ± range, two experiments
[3] = for hourly bioaccessibility as a percentage of anthocyanin input: fasted state, 4 h
[4] = system: mice with diet-induced diabetes; conditions: orally administered, ref Grace et al., 2009; cited from earlier work

OC[C@H]1O[C@@H](Oc2cc3c(O)cc(O)cc3[o+]c2-c2cc(O)c(O)c(O)c2)[C@H](O)[C@@H](O)[C@@H]1O [dp-3-Glucoside, delphinidin-3-glucoside]
transport efficiency in Caco-2 cells [1]: lower transport efficiency

COc1cc(-c2[o+]c3cc(O)cc(O)c3cc2O[C@@H]2O[C@H](COC(C)=O)[C@H](O)[C@H](O)[C@H]2O)cc(OC)c1O [mal-3-(6″-Acetoyl)-galactoside]
ACNs in I.E. as % of input [2]: 2.4 ± 0.9 % of input

COc1cc(-c2[o+]c3cc(O)cc(O)c3cc2O[C@@H]2OC[C@H](O)[C@H](O)[C@H]2O)cc(OC)c1O [mal-3-Arabinoside, malvidin-3-arabinoside]
ACNs in I.E. as % of input [2]: 2.6 ± 0.4 % of input
total bioaccessibility in the fasted state relative to the fed state ([3]; fasted vs fed (high fat meal), Tables 1 and 2): twice as bioaccessible

COc1cc(-c2[o+]c3cc(O)cc(O)c3cc2O[C@@H]2O[C@H](CO)[C@H](O)[C@H](O)[C@H]2O)cc(OC)c1O [mal-3-Galactoside]
ACNs in I.E. as % of input [2]: 2.6 ± 0.8 % of input

COc1cc(-c2[o+]c3cc(O)cc(O)c3cc2O[C@@H]2O[C@H](CO)[C@@H](O)[C@H](O)[C@H]2O)cc(OC)c1O [mal-3-Glucoside, malvidin-3-glucoside]
ACNs in I.E. as % of input [2]: 3.2 ± 0.1 % of input
hypoglycemic effect [4]: hypoglycemic
transport efficiency in Caco-2 cells [1]: highest transport efficiency
hourly bioaccessibility as a percentage of anthocyanin input ([3]; ileal samples): 0.3%
hourly bioaccessibility as a percentage of anthocyanin input ([3]; jejunum): 0.8%

COc1cc(-c2[o+]c3cc(O)cc(O)c3cc2O[C@@H]2OC[C@H](O)[C@H](O)[C@H]2O)cc(O)c1O.[Cl-] [pt-3-Arabinoside, petunidin-3-arabinoside]
total bioaccessibility in the fed state relative to the fasted state ([2]; fed (high fat meal) vs fasted, Tables 1 and 2): twice as bioaccessible
ACNs in I.E. as % of input [2]: 4.5 ± 1.5 % of input
